Where two headings read alike, the source gives them in different places. Marks after values point to notes of the source that are not given here. Blank lines part the entries; values can stand above or below the compound they belong to.
Columns and labels:
[1] = test system: TS induced BAL neutrophil influx; experiment: Pre-clinical mouse model of COPD inflammation (tobacco smoke induced pulmonary inflammation), BAL neutrophil counts; type: in vivo; settings: mice; for Inhibition of TS induced BAL neutrophil influx: BAL 24 h after final TS; for TS induced influx of neutrophils in the BAL (in words): administered by a surrogate route for inhalation (intra-nasal)
Protocol: Protocols for the exposure of mice to TS, obtaining bronchoalveolar lavage (BAL), preparation of cytospin slides for differential cell counts are as outlined below.
In this exposure protocol, mice were exposed in groups of 5 in individual clear polycarbonate chambers (27 cm×16 cm×12 cm). The TS from the cigarettes was allowed to enter the exposure chambers at a flow rate of 100 mL/min. In order to minimize any potential problems caused by repeated exposure to a high level of TS (6 cigarettes), the exposure of the mice to TS was increased gradually over the exposure period to a maximum of 6 cigarettes. The exposure schedule used for 4 days was as follows:
A further group of mice was exposed to air on a daily basis for an equivalent length of time as controls (no TS exposure).
Bronchoalveolar lavage was performed as follows: the trachea was cannulated using a Portex nylon intravenous cannula (pink luer fitting) shortened to approximately 8 mm. Phosphate buffered saline (PBS) was used as the lavage fluid. A volume of 0.4 mL was gently instilled and withdrawn 3 times using a 1 mL syringe and then placed in an Eppendorf tube and kept on ice prior to subsequent determinations.
Lavage fluid was separated from cells by centrifugation and the supernatant decanted and frozen for subsequent analysis. The cell pellet was re-suspended in a known volume of PBS and total cell numbers calculated by counting a stained (Turks stain) aliquot under a microscope using a haemocytometer.
The residual cell pellet was diluted to approximately 10^5 cells per mL. A volume of 500 μL was placed in the funnel of a cytospin slide and centrifuged for 8 min at 800 rpm. The slide was air dried and stained using ‘Kwik-Diff’ solutions (Shandon) as per the proprietary instructions. When dried and cover-slipped, differential cells were counted using light microscopy. Up to 400 cells were counted by unbiased operator using light microscopy. Cells were differentiated using standard morphometric techniques.
Mice were dosed intra-nasally (surrogate for oral inhalation) with vehicle (0.2% tween 80 in saline), Example 1 (0.1 mg/kg), Example 10 (0.1 mg/kg), Example 10 (0.03 mg/kg), or Example 10 (0.01 mg/kg), at 3 hours prior to tobacco smoke exposure each day. The control group of mice received vehicle 3 hrs prior to being exposed to air daily for a maximum of 50 minutes per day. BAL was performed 24 h following the final TS exposure.
In a separate experiment, mice were dosed intra-nasally (surrogate for oral inhalation) with either vehicle (0.2% tween 80 in saline), Example 7 (0.1 mg/kg), Compound 7 (0.03 mg/kg), Example 15 (0.1 mg/kg), or Example 15 (0.03 mg/kg), 1 hour prior to tobacco smoke exposure each day. The control group of mice received vehicle 1 hr prior to being exposed to air daily for a maximum of 50 minutes per day. BAL was performed 24 h following the final TS exposure.
All results are presented as individual data points for each animal and the mean value was calculated for each group. Since tests for normality were positive the data was subjected to a one way analysis of variance test (ANOVA), followed by a Bonferroni correction for multiple comparisons in order to test for significance between treatment groups. A “p” value of <0.05 was considered to be statistically significant. Percentage inhibitions were automatically calculated within the Excel spreadsheets for the cell data using the formula below:
[formula] Inhibition data for other parameters were calculated manually using the above formula.

human PPARγ = target: T1, human PPARγ (Homo sapiens, UniProt P37231); experiment: Human PPAR gamma agonist activity, GAL4-luciferase transactivation in transfected HEK-293 cells; type: cell-based; settings: fold increase in gene transactivation (luciferase), 18 hours incubation, classes at 10 μM or 1 μM
T1 construct: expressed in transfected cells; host or cells: HEK-293 (Human Embryonic Kidney) cells
T1 sequence (P37231 1-505): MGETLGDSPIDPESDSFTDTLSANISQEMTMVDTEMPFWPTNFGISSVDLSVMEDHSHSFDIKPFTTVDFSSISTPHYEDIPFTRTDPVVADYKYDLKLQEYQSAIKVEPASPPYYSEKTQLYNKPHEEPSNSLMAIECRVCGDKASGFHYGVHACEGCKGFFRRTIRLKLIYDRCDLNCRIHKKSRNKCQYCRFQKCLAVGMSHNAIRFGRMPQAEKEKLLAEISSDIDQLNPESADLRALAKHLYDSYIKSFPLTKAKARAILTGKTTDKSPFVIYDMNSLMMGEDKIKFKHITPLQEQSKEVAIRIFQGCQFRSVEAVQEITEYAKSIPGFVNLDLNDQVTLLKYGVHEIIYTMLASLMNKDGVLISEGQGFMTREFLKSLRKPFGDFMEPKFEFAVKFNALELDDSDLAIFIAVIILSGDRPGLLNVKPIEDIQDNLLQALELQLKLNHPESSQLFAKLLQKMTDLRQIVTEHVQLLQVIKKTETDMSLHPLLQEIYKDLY
Protocol: HEK-293 (Human Embryonic Kidney) cells were seeded at a density of 2.8×10^5 cells/well in a 6 well plate in DMEM +10% delipidated FBS medium and incubated at 37° C., 5% CO2. At 70-80% confluency cells were transfected with human pCDNA3.1E˜PPARγ+pGL2˜GAL4x5˜Luc+pADV plasmids for 3 hours (ratio 2:0.25:1.25 μg/well). The transfection medium was then replaced with fresh medium and cells were incubated for 48 hours.
Varying final concentrations of compounds (vehicle=0.1% DMSO) of the invention were prepared in medium (50 μl/well) and added to the wells in a 96 well plate. Transfected cells were harvested and pelleted by centrifugation. The cell pellet was resuspended in medium and cells counted. 10,000 cells/well were added to the 96 well plate containing compounds of the invention and incubated for 18 hours. Luminescence produced following agonism of the PPAR gamma receptor was determined using Packard luciferase substrate reagent (100 μl/well). Light emission was quantified by counting SPC mode using a Top Count. Fold activation was calculated using the following formula: […]
All compounds show activity as PPAR gamma agonists at 30 μM. Key for relative activity: • *<8 fold increase in gene transactivation with 10 μM • **>8 fold increase in gene transactivation with 10 μM • ***>8 fold increase in gene transactivation with 1 μM.

[2] = In vivo pharmacokinetic study, plasma AUC after oral and i.v. dosing; design: species or system male Wistar rats; settings: for plasma AUC following i.v. dosing (in words) / oral bioavailability (in words) / AUC: rat; for oral bioavailability (in words): oral vs i.v. plasma AUC; for AUC: plasma
Protocol: The suitability of the compounds exemplified in Examples 7, 10 and 15 above for inhalation for the treatment of lung diseases was examined by standard in vivo pharmacokinetic studies using male Wistar rats as known in the art. […] A single 1 mg/kg dose of Example 7, Example 10 and Example 15 was administered in 10% DMSO, 10% Cremophor ELP, 10% PEG 400, 10% EtOH and 60% Milli Q Water by the intravenous (IV) route and plasma samples taken 15 minutes, 30 minutes, 1 hour, 2 hours, 3 hours, 5 hours, 8 hours, 10 hours and 24 hours. Concentrations of Example 7, Example 10 and Example 15 in the various plasma samples were determined using standard analytical procedures.
Standard pharmacokinetic parameters following IV or oral dosing were calculated from the plasma concentration data, including Area under the curve (AUC), maximum plasma concentration (Cmax), time of maximum plasma concentration (Tmax), Elimination time (Kel) and plasma half-life (T½).
Compounds suitable for inhalation for the treatment of lung diseases have low plasma AUC following i.v. dosing indicating reduced likelihood of systemic side effects. Compounds suitable for inhalation for the treatment of lung diseases also have low oral bioavailability indicated by a much lower plasma AUC following oral dosing as that achieved by i.v. dosing. Low oral bioavailability leads to only a small fraction of the swallowed drug following inhalation being absorbed into the plasma, further reducing the likelihood of systemic side effects.

[3] = rat, cited from earlier work
[4] = 0.1 mg/kg intra-nasally 3 hours prior to TS exposure each day for 4 days
[5] = iv, male Wistar rats, single 1 mg/kg i.v. dose, read-out: Plasma AUC following 1 mg/kg i.v. dose
[6] = male Wistar rats, derived from 5 mg/kg oral dose PK data, read-out: Plasma AUC following 1 mg/kg oral dose
[7] = 0.03 mg/kg intra-nasally 1 hour prior to TS exposure each day for 4 days
[8] = 0.1 mg/kg intra-nasally 1 hour prior to TS exposure each day for 4 days

melting point: 152 to 153 °C
SMILES: Cc1ccc(-n2cc(Oc3ccc(NS(=O)(=O)c4ccc(Cl)cc4Cl)cc3)cn2)cc1 [Example 1, 2,4-dichloro-N-[4-(1-p-tolyl-1H-pyrazol-4-yloxy)-phenyl]benzene sulfonamide]
Inhibition of TS induced BAL neutrophil influx [1, 4]: 72%
TS induced influx of neutrophils in the BAL (in words) [1]: significantly inhibit
PPARγ agonist activity (human PPARγ): *** (>8 fold increase in gene transactivation with 1 μM)

SMILES: O=S(=O)(Nc1cc(Cl)c(Oc2cnn(-c3ccc(F)cc3F)c2)c(Cl)c1)c1ccc(Cl)cc1Cl [Example 3]
PPARγ agonist activity (human PPARγ): *** (>8 fold increase in gene transactivation with 1 μM)

SMILES: O=S(=O)(Nc1cc(Cl)c(Oc2cnn(-c3ccc(F)cc3)c2)c(Cl)c1)c1ccc(Cl)cc1Cl [Example 4]
PPARγ agonist activity (human PPARγ): *** (>8 fold increase in gene transactivation with 1 μM)

SMILES: O=S(=O)(Nc1ccc(Oc2cnn(-c3ccc(F)cc3)c2)c(Cl)c1)c1ccc(Cl)cc1Cl [Example 5]
PPARγ agonist activity (human PPARγ): *** (>8 fold increase in gene transactivation with 1 μM)

SMILES: O=S(=O)(Nc1ccc(Oc2cnn(-c3ccc(Cl)cc3)c2)c(Cl)c1)c1ccc(Cl)cc1Cl [Example 6]
PPARγ agonist activity (human PPARγ): *** (>8 fold increase in gene transactivation with 1 μM)

plasma AUC following i.v. dosing (in words) [2]: low
oral bioavailability (in words) [2]: low
AUC [2, 5]: 1080 ± 240 ng·h/mL
AUC [2, 6]: 40 ± 8 ng·h/mL
SMILES: O=S(=O)(Nc1ccc(Oc2cnn(-c3ccc(F)c(Cl)c3)c2)c(Cl)c1)c1ccc(Cl)cc1Cl [Example 7]
Inhibition of TS induced BAL neutrophil influx [1, 7]: 37%
Inhibition of TS induced BAL neutrophil influx [1, 8]: 64%
TS induced influx of neutrophils in the BAL (in words) [1]: significantly inhibit
PPARγ agonist activity (human PPARγ): ** (>8 fold increase in gene transactivation with 10 μM)

SMILES: Cc1ccc(S(=O)(=O)Nc2ccc(Oc3cnn(-c4ccc(F)cc4)c3)c(Cl)c2)cc1 [Example 8]
PPARγ agonist activity (human PPARγ): ** (>8 fold increase in gene transactivation with 10 μM)

SMILES: Cc1cc(NS(=O)(=O)c2ccc(Cl)cc2Cl)ccc1Oc1cnn(-c2ccc(F)cc2)c1 [Example 9]
PPARγ agonist activity (human PPARγ): *** (>8 fold increase in gene transactivation with 1 μM)

Plasma AUC following 1 mg/kg oral dose ([2]; male Wistar rats, oral gavage (5 mg/kg given), limit of detection was 5 ng/ml): None
plasma AUC following i.v. dosing (in words) [2]: low
oral bioavailability (in words) [2]: low
AUC [2, 5]: 210 ± 60 ng·h/mL
SMILES: Cc1ccc(-n2cc(Oc3ccc(NS(=O)(=O)c4ccc(Cl)cc4Cl)cc3)cn2)c(C)c1 [Example 10]
Inhibition of TS induced BAL neutrophil influx ([1]; 0.01 mg/kg intra-nasally 3 hours prior to TS exposure each day for 4 days): 42%
Inhibition of TS induced BAL neutrophil influx ([1]; 0.03 mg/kg intra-nasally 3 hours prior to TS exposure each day for 4 days): 50%
Inhibition of TS induced BAL neutrophil influx [1, 4]: 72%
TS induced influx of neutrophils in the BAL (in words) [1]: significantly inhibit
PPARγ agonist activity (human PPARγ): *** (>8 fold increase in gene transactivation with 1 μM)

SMILES: Cc1ccc(-n2cc(Oc3ccc(NS(=O)(=O)c4ccc(C)cc4)cc3)cn2)cc1 [Example 11]
PPARγ agonist activity (human PPARγ): * (<8 fold increase in gene transactivation with 10 μM)

SMILES: O=S(=O)(Nc1ccc(Oc2cnn(-c3ccc(F)cc3)c2)c(Cl)c1)c1ccccc1 [Example 12]
PPARγ agonist activity (human PPARγ): * (<8 fold increase in gene transactivation with 10 μM)

SMILES: O=S(=O)(Nc1ccc(Oc2cnn(-c3ccccc3)c2)c(Cl)c1)c1ccc(Cl)cc1Cl [Example 13]
PPARγ agonist activity (human PPARγ): *** (>8 fold increase in gene transactivation with 1 μM)

SMILES: Cc1ccc(S(=O)(=O)Nc2ccc(Oc3cnn(-c4ccc(C)cc4C)c3)cc2)cc1 [Example 14]
PPARγ agonist activity (human PPARγ): * (<8 fold increase in gene transactivation with 10 μM)

plasma AUC following i.v. dosing (in words) [2]: low
oral bioavailability (in words) [2]: low
AUC [2, 5]: 170 ± 60 ng·h/mL
AUC [2, 6]: 1 ± 2 ng·h/mL
SMILES: Cc1ccc(S(=O)(=O)Nc2ccc(Oc3cnn(-c4ccc(C)cc4C)c3)c(Cl)c2)cc1 [Example 15]
Inhibition of TS induced BAL neutrophil influx [1, 7]: 66%
Inhibition of TS induced BAL neutrophil influx [1, 8]: 69%
TS induced influx of neutrophils in the BAL (in words) [1]: significantly inhibit
PPARγ agonist activity (human PPARγ): ** (>8 fold increase in gene transactivation with 10 μM)

SMILES: CN(CCOc1ccc(CC2SC(=O)NC2=O)cc1)c1ccccn1 (stereo not shown) [Rosiglitazone]
plasma AUC following an i.v. dose (in words) ([3]; i.v.): high
oral bioavailability (in words) ([3]; oral vs i.v. plasma AUC): high
Plasma AUC following 1 mg/kg i.v. dose ([3]; FDA Pharmacology review data, derived from 0.4 mg/kg i.v. dose PK data): 13.75*** μg*hr/ml
Plasma AUC following 1 mg/kg oral dose ([3]; FDA Pharmacology review data, derived from 0.4 mg/kg oral dose PK data): 14.28*** μg*hr/ml

— patent US8362064B2, “Sulfonamide compounds for the treatment of respiratory disorders” (Pulmagen Theraputics (Inflammation) Limited, priority 2008, dated 2013)
